# According to patent publication EP0715517B1, “ESTRENE STEROIDS AS NEU[…] CHANGE IN HUMAN HY[…] AND RELATED PHARMACEUTICAL COMPOSITIONS” (priority 1993, dated 1994):
# “Also recorded” adds a separate entry of the source.
# Assays:
# VNO [1] = assay: Comparison of the change in receptor potential induced by two Estrene steroids (Example 23); assay type: in vivo, human; conditions: 60 picograms; a subject; Fig. 5
# Method: 60 picograms of each steroid and of a propylene glycol control were administered to a subject as described in Example 21.
# VNO [2] = assay: Electro-vomeronasogram (EVG) (Example 25); assay type: in vivo, human; conditions: male subjects (ages 20 to 38); 100 fmoles; 1 second pulses; p<0.01; Fig. 6A
# Method: The following electrophysiological studies were performed in 60 clinically normal human volunteers of both sexes (30 male and 30 female) whose ages ranged from 20 to 45 years. No anesthetics were used, and female subjects were excluded if pregnant.
# The stimulation and recording system consists of a "multifunctional miniprobe" described elsewhere (Monti-Bloch, L. and Grosser, B.l. (1991) "Effect of putative pheromones on the electrical activity of the human vomeronasal organ and olfactory epithelium," J. Steroid Biochem. Molec. Biol. 39:573-582.). The recording electrode is a 0.3 mm silver ball attached to a small (0.1 mm) silver wire insulated with Teflon© the surface of the electrode is first treated to produce a silver chloride interface, and is then covered with gelatin It is positioned within a small caliber Teflon© catheter (dia = […]) such that the tip of the electrode protrudes approximately 2 mm. The Teflon© catheter is 10 cm in length and constitutes the terminal extension for a multichannel delivery system which delivers a continuous air stream carrying discreet pulses of chemosensory stimuli. The air stream first passes into a small chamber and is bubbled through a solution containing either a vomeropherin or an olfactant in a diluent or the diluent alone. A solenoid is used to rapidly redirect the air stream from the chamber to a route which bypasses the chamber. This creates a discreet pulse of stimulant in the air stream. A second, outer Teflon® tube with a diameter of 2 mm surrounds the catheter-electrode assemblage, and its central end is connected to an aspirator that provides continuous suction of 3ml/s. This concentric arrangement of the outer suction tube allows the emitted chemosensory stimuli to be localized to an area we call a "minifield" (approx. dia = 1 mm), and it avoids diffusion of substances either to the area outside the intended stimulation site or into the respiratory system. The entire stimulating and recording assemblage may be positioned either on the neurosensory epithelium within the VNO, or on the surface of the olfactory or respiratory epithelium. Electro-vomeronasogram (EVG): Recordings are carried out in a quiet room with the subject supine; the multifunctional miniprobe is initially stabilized within the nasal cavity using a nasal retractor placed in the vestibule. Reference and ground electrodes consist of silver discs (8 mm), both of which are positioned on the glabella.
# The entrance to the VNO, or vomeronasal pit, is identified by first dilating the nasal aperture and vestibule. A 6x magnifying binocular loupe with halogen illumination is then used to introduce the tip of the Teflon® catheter and recording electrode assemblage into the VNO opening where it is stabilized at an approximate depth of 1 mm within the vomeronasal passage. Optimal placement of the recording electrode is signaled after testing for an adequate depolarization in response to a test substance.
# Electrical signals from the recording electrode are fed to a DC amplifier after which they are digitized, computer monitored, and stored. The peak-to-peak amplitude of the signals is measured, and the area under the depolarization wave is integrated, while continuously monitoring the signal both on the computer screen and on a digital oscilloscope. Artifacts produced by respiratory movements are deleted by training the subjects to practice mouth breathing with velopharyngeal closure. Chemosensory Stimulants: Olfactory test substances are cineole, and 1-carvone; vomeropherins are A, B, C, E and F. (Vomeropherins were supplied by Pherin Corporation, Menlo Park, California), Samples of vomeropherins In concentration of 25-800 fmoles are delivered in the continuous air stream for durations from 300 milliseconds to 1 second. Usually, intervals of 3 to 5 minutes separated each series of short test pulses. […]
# VNO [3] = assay: Skin temperature (ST) after VNO stimulation (Example 25); assay type: in vivo, human; conditions: 30 male subjects; p<0.01; Fig. 6G
# Method: (§1) Cortical evoked activity was induced by VNO stimulation with vomeropherins, and olfactory stimulation with odorants delivered in 300 ms air pulses. It was recorded using standard electroencephalographic (EEG) electrodes placed at positions Cz-A1 and Tz-A1 of the international […] system; the ground electrode was placed on the mastoid process. Electrodermal activity (EDA) was recorded using standard 8 mm silver electrodes in contact with palmar skin of the medial and ring fingers respectively, through a conductive gel interface. Skin temperature (ST) was recorded by a small (1.0 mm) thermistor probe placed in the right ear lobe. Peripheral arterial pulse (PAP) was monitored with a plethysmograph attached to the tip of the index finger. Respiratory frequency (RF) was measured with an adjustable strain gauge placed around the lower thorax. All electrical signals were DC amplified, digitized (MP-100, Biopac Systems) and continuously monitored utilizing a computer. Statistical Analysis: EVGs or EOGS, peak-to-peak changes and frequency changes of other parameters were measured and statistically analyzed. The significance of the results was determined by either using paired t-tests or analysis of variance (ANOVA). […] Recordings of the EVG were performed on 30 men and 30 women (ages 20 to 45). Vomeropherins were diluted and applied as 1 second pulses to the VNO with […] intervals between pulses when questioned, the subjects were not able to "smell" or otherwise consciously detect any of the vomeropherins.
# VNO [4] = assay: Cortical evoked activity (EEG, alpha cortical activity) after VNO stimulation (Example 25); assay type: in vivo, human; conditions: males, 200 fmoles, Fig. 6E
# Method: as §1
# […] […] Synchronization of the EEG was sustained for 1.5 to 2.7 minutes after application of a single pulse of active substance.
# VNO [5] = conditions: 2% lidocaine applied to the respiratory epithelium of the nasal septum; preliminary evidence, Monti-Bloch and Grosser 1991; cited from earlier work
SMILES,change in receptor potential (VNO [1]),EVG average response (mean) (VNO [2]),skin temperature (ST) (VNO [3]),alpha cortical activity (VNO [4]; air pulses 300 ms to 1 sec),latency of increase in alpha cortical activity (VNO [4]),effect of local anesthetic on the EVG (VNO [5])
"COc1ccc2c(c1)CC[C@@H]1[C@@H]2CC[C@]2(C)C=CC[C@@H]12 [D, 3-Methoxy-Estra-1,3,5(10),16-tetraene]","greater change in receptor potential than did 1,3,5(10),16-Estratetraen-3-yl acetate",15.1 mV,significant temperature decrease,significantly increased alpha cortical activity; also recorded: strongest effect,270 to 380 ms,–
CCN(CC)CC(=O)Nc1c(C)cccc1C [lidocaine],–,–,–,–,–,neither blocks nor diminishes the EVG
